Earlier results on 1 compound are cited in patent US12194111B2, “Alpha emitter compositions and methods” (Nant Holdings IP, LLC, priority 2018, dated 2025).

The data set relates to relapsed or refractory soft tissue sarcoma. The conditions noted are these: clinical trial; treatment of relapsed or refractory soft tissue sarcoma.

For the compound `COc1cccc2c1C(=O)c1c(O)c3c(c(O)c1C2=O)C[C@@](O)(/C(CO)=N/NC(=O)CCCCCN1C(=O)C=CC1=O)C[C@@H]3O[C@H]1C[C@H](N)[C@H](O)[C@H](C)O1` [aldoxorubicin], the progression free disease result is reported as “did not show a significant increase in progression free disease”.
